Laboratory results published in patent US12545890B2, “Compositions and methods for derivation of trophoblast stem cells” (North Carolina State University, priority 2019, dated 2026).

What was measured:
H1 and H9 hESCs [1] = assay: 6-day differentiation of hESCs to CTB-like cells in chemically defined medium, marker expression by qPCR and immunofluorescence; conditions: for immunofluorescence expression of trophoblast/CTB markers in CTB-like cells: day 6, S1P or replacing agonist with BMP4 and SB431542 in E7 medium
H1 and H9 hESCs [2] = assay: differentiation of day-6 CTB-like cells to EVTs, analysed at day 12; conditions: for formation of EVTs, expression of EVT markers HLA-G and VE-Cadherin: agonist present during initial 6-day treatment, 12-day treatment; for formation of mesenchymal EVTs, compared among S1PR agonists: relative to the S1PR2 agonist
From the text: (§1) Differentiation of hPSCs (6 days protocol). […] The medium was replaced every day.

H1 and H9 hESCs [3] = assay: differentiation of day-6 CTB-like cells to STB, analysed at day 14; conditions: for formation of multinucleate STB expressing STB markers: agonist present during initial 6-day treatment, 14-day treatment; for formation of large multinucleated STB, compared among S1PR agonists: compared to the S1PR1 agonist
From the text: as §1

H9 and H1 hESCs = assay: 3-day differentiation of hESCs, quantitative image analysis of nuclear CDX2; type: cell-based, human; conditions: day 3; BMP4 and SB431542 in E7 medium with S1PR3 agonist
Protocol: Differentiation of hPSCs to hPSC-TS^CDX2 and hPSC-TS cells. […] The medium was replaced every day. […] Alternatively, hPSCs after 2 or 3 days of differentiation were directly passaged into TSCM.
Immunofluorescence analysis.
Confocal image analysis. Image analysis was conducted using an image processing algorithm created in MATLAB. First, the DAPI stain was isolated, binarized, and processed to accurately represent the number of cells in each image. The primary-antibody stain of interest was isolated and processed in the same manner. Only primary-antibody pixels that overlap DAPI pixels were considered for analysis, and the average intensities of those pixels were measured and correlated to the nearest nuclei. This was performed for one control image and multiple experimental images. Each cell in the experimental images was considered positively stained if the average intensity of that cell was greater than the average intensity of all of the cells in the control image. Statistical analysis was done using a two-tailed t-test evaluating percent positive cells from different treatment periods.

[4] = day 6, qualitative immunofluorescence

CCOc1ccc(-c2nc(-c3cccc4c3CCC4NCCO)no2)cc1OCC.Cl (stereo not drawn) [CYM5442 hydrochloride]
intensity of CDX2 and P63 expression, compared among S1PR agonists (H1 and H9 hESCs [1]; [4]): higher
nuclear P63 expression, compared among S1PR agonists (H1 and H9 hESCs [1]; [4]): strongest
immunofluorescence expression of trophoblast/CTB markers in CTB-like cells (H1 and H9 hESCs [1]): Expression of CDX2, GATA3, P63, and TEAD4 was observed
formation of EVTs, expression of EVT markers HLA-G and VE-Cadherin (H1 and H9 hESCs [2]): expression of the EVT markers HLA-G and VE-Cadherin
formation of mesenchymal EVTs, compared among S1PR agonists (H1 and H9 hESCs [2]): enhanced formation of mesenchymal EVTs
formation of multinucleate STB expressing STB markers (H1 and H9 hESCs [3]): formation of multinucleate STB expressing KRT7 and hCG

Cc1cc(C(=O)Cn2cc(C#N)ccc2=O)c(C)n1Cc1ccccc1 [CYM5520]
intensity of CDX2 and P63 expression, compared among S1PR agonists (H1 and H9 hESCs [1]; [4]): lower expression of CDX2, strong cytoplasmic expression of P63, and high heterogeneity in staining
immunofluorescence expression of trophoblast/CTB markers in CTB-like cells (H1 and H9 hESCs [1]): Expression of CDX2, GATA3, P63, and TEAD4 was observed
formation of EVTs, expression of EVT markers HLA-G and VE-Cadherin (H1 and H9 hESCs [2]): expression of the EVT markers HLA-G and VE-Cadherin
formation of multinucleate STB expressing STB markers (H1 and H9 hESCs [3]): formation of multinucleate STB expressing KRT7 and hCG
formation of large multinucleated STB, compared among S1PR agonists (H1 and H9 hESCs [3]): more pronounced

O=C(c1cc(C2CC2)on1)N(C1CCCCC1)C1CCCCC1 [CYM5541]
intensity of CDX2 and P63 expression, compared among S1PR agonists (H1 and H9 hESCs [1]; [4]): higher
intensity of CDX2 and P63 expression, compared among S1PR agonists (H1 and H9 hESCs [1]; day 6, qualitative immunofluorescence, listed as S1PR3 agonist): high CDX2 expression
immunofluorescence expression of trophoblast/CTB markers in CTB-like cells (H1 and H9 hESCs [1]): Expression of CDX2, GATA3, P63, and TEAD4 was observed
formation of EVTs, expression of EVT markers HLA-G and VE-Cadherin (H1 and H9 hESCs [2]): expression of the EVT markers HLA-G and VE-Cadherin
formation of mesenchymal EVTs, compared among S1PR agonists (H1 and H9 hESCs [2]): enhanced formation of mesenchymal EVTs
formation of multinucleate STB expressing STB markers (H1 and H9 hESCs [3]): formation of multinucleate STB expressing KRT7 and hCG
formation of large multinucleated STB, compared among S1PR agonists (H1 and H9 hESCs [3]): more pronounced
fraction of CDX2+ cells (H9 and H1 hESCs): nearly all cells are CDX2^+

CCCCCCCCCCCCC/C=C/[C@@H](O)[C@@H](N)COP(=O)(O)O [S1P, sphingosine-1 phosphate]
gene expression of CTB markers CDX2 and ELF5 (H1 and H9 hESCs [1]; H1 and H9 hESCs, 6 days in E7 medium supplemented with S1P, with BMP4 and SB431542, compared to hESCs): upregulation of the CTB markers CDX2 and ELF5 was observed
gene expression of neural and mesodermal markers (H1 and H9 hESCs [1]; H1 and H9 hESCs, after 6 days in E7 medium supplemented with S1P, with BMP4 and SB431542): no significant changes in markers associated with neural or mesodermal differentiation
gene expression after 6 days of differentiation upon removal of S1P (H1 and H9 hESCs [1]; H9 and H1 hESCs, compared to 6-day treatment in the presence of S1P): downregulation of the CTB marker CDX2 and upregulation of transcripts of neural and mesoderm markers
immunofluorescence expression of trophoblast/CTB markers in CTB-like cells (H1 and H9 hESCs [1]): confirmed expression of the pan-trophoblast marker KRT7, and CTB markers P63 and GATA3
formation of EVTs upon removal of S1P (H1 and H9 hESCs [2]; S1P removed during hESC differentiation to CTB-like cells, identical differentiation conditions): abolished formation of EVTs
formation of EVTs, expression of EVT markers HLA-G and VE-Cadherin (H1 and H9 hESCs [2]): expression of KRT7 and the EVT markers VE-Cadherin and HLA-G
differentiation to STB in the absence of S1P (H1 and H9 hESCs [3]; S1P removed during initial 6-day treatment, syncytin and KRT7 staining): did not occur
formation of multinucleate STB expressing STB markers (H1 and H9 hESCs [3]): formation of KRT7^+ multinucleate cells expressing the STB markers hCG and syncytin

CCCCCCCCCCCCCCC[C@@H](O)[C@@H](N)COP(=O)(O)O [dhS1P, D-erythro-dihydrospingosine-1-phosphate]
immunofluorescence expression of trophoblast/CTB markers in CTB-like cells (H1 and H9 hESCs [1]): CTB-like cells showed expression of CDX2, GATA3, P63, and TEAD4
formation of EVTs, expression of EVT markers HLA-G and VE-Cadherin (H1 and H9 hESCs [2]): EVT expressing HLA-G and VE-Cadherin were obtained
formation of multinucleate STB expressing STB markers (H1 and H9 hESCs [3]): STB expressing KRT7 and hCG
